Test results: article PMC11943294, “Identification of Key Active Constituents in Eucommia ulmoides Oliv. Leaves Against Parkinson’s Disease and the Alleviative Effects via 4E-BP1 Up-Regulation” (International Journal of Molecular Sciences, 2025)

What was measured:
4E-BP1 [1] = biological target: T1, 4E-BP1 (Homo sapiens, UniProt Q13541); assay: SPR (BIAcore T200, CM5 chip, immobilized 4E-BP1, […] Langmuir); type: binding
T1 construct: gene EIF4EBP1; amine-coupled to CM5 chip; PDB 2JGB used for docking only

4E-BP1 [2] = biological target: T1, 4E-BP1; assay: as above; settings: 25 °C; 0-125 μM analyte; unreliable (discussion b43 prints another KD, 3.75 × 10^−5 M, and a negative deviation of the binding curve)

T1 sequence (Q13541 2-118): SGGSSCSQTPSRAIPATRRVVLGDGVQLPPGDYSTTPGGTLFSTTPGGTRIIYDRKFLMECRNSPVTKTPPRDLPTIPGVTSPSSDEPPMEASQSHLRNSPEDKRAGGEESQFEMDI

Kd (4E-BP1 [1])	KD (4E-BP1 [2])	SMILES
12.9 µM	–	O=C(O)/C=C/c1ccc(O)c(O)c1 [caffeic acid]
55.6 µM	–	O=C(/C=C/c1ccc(O)c(O)c1)O[C@@H]1C[C@](O)(C(=O)O)C[C@@H](O)[C@H]1O [chlorogenic acid]
–	4.469 µM	O=C(/C=C/c1ccc(O)c(O)c1)O[C@H]1[C@H](O)C[C@](O)(C(=O)O)C[C@H]1O [cryptochlorogenic acid]
